From article PMC10322702 (Nature Chemistry, 2023)
“And” between values parts separate entries of the source, which are not always exact repeats. Identical values can stand only once. Numbered stars: 1 amine (or outer) side, 2 acyl side, 3 side chain; on linkers, the order of the positions; unused ones are H or OH. Bridge positions count the residues as written; N and C are the ends. Square brackets hold non-standard residues; d marks the D form. Peptide text beside a SMILES is read from it. Acbc(cis-1,3) = O=C([C@H]1C[C@@H](N[*:1])C1)[*:2]; X1 = O=C([C@@H]1CC[C@H](N[*:1])C1)[*:2]

Experiments:
SARS-CoV-2 M^pro [1] = biological target: T1, SARS-CoV-2 M^pro (Severe acute respiratory syndrome coronavirus 2, UniProt P0DTD1); test: biochemical; format: biochemical
[2] = Serum stability assay in human serum (LC/MS); conditions: for Remaining peptide (%) / remaining at 0.5 h, 10 μM / remaining at 1 h, 10 μM / remaining at 2 h, 10 μM / remaining at 4 h, 10 μM / remaining at 8 h, 10 μM / remaining at 24 h, 10 μM / remaining at 50 h, 10 μM / remaining at 100 h, 10 μM: 37 °C, relative to 0 h = 100%, technical replicates; for half-life at 10 μM / remaining at 0.5 h, 10 μM / remaining at 1 h, 10 μM / remaining at 2 h, 10 μM / remaining at 4 h, 10 μM / remaining at 8 h, 10 μM / remaining at 24 h, 10 μM / remaining at 50 h, 10 μM / remaining at 100 h, 10 μM: human; for remaining at 0.5 h, 10 μM / remaining at 1 h, 10 μM / remaining at 2 h, 10 μM / remaining at 4 h, 10 μM / remaining at 8 h, 10 μM / remaining at 24 h, 10 μM / remaining at 50 h, 10 μM / remaining at 100 h, 10 μM: Remaining peptide (%)
SARS-CoV-2 M^pro [3] = biological target: T1, SARS-CoV-2 M^pro; test: biochemical; format: binding; conditions: for kon: read-out: ka (kinetic association)
[4] = incubation time 100 h, 6000 min

| Compound | IC50 (SARS-CoV-2 M^pro [1]) | inhibition at 2.75 µM (SARS-CoV-2 M^pro [1]) | Remaining peptide (%) ([2]; incubation time 1 h, 60 min) | Remaining peptide (%) ([2]; incubation time 2 h, 120 min) | Remaining peptide (%) ([2]; incubation time 4 h, 240 min) | Remaining peptide (%) ([2]; incubation time 8 h, 480 min) | half-life at 10 μM [2] | remaining at 1 h, 10 μM ([2]; incubation time 1 h) | remaining at 2 h, 10 μM ([2]; incubation time 2 h) | remaining at 4 h, 10 μM ([2]; incubation time 4 h) | remaining at 8 h, 10 μM ([2]; incubation time 8 h) | remaining at 24 h, 10 μM ([2]; incubation time 24 h) | Kd (SARS-CoV-2 M^pro [3]) | kd (kinetic dissociation) (SARS-CoV-2 M^pro [3]) | kon (SARS-CoV-2 M^pro [3]) | Remaining peptide (%) ([2]; incubation time 24 h, 1440 min) | Remaining peptide (%) ([2]; incubation time 50 h, 3000 min) | Remaining peptide (%) [2, 4] | remaining at 50 h, 10 μM ([2]; incubation time 50 h) | remaining at 100 h, 10 μM ([2]; incubation time 100 h) | other results |
| --- | --- | --- | --- | --- | --- | --- | --- | --- | --- | --- | --- | --- | --- | --- | --- | --- | --- | --- | --- | --- | --- |
| CC(C)C[C@@H]1NC(=O)[C@@H](Cc2ccc(O)cc2)NC(=O)CSC[C@H](C(N)=O)NC(=O)[C@H](C)NC(=O)[C@H](C)NC(=O)[C@H](Cc2ccc(O)cc2)NC(=O)[C@H](CCCNC(=N)N)NC(=O)[C@H](Cc2ccc(O)cc2)NC(=O)[C@H](C)NC(=O)[C@H](CO)NC(=O)[C@H](Cc2ccc(O)cc2)NC(=O)[C@H]([C@@H](C)O)NC(=O)[C@H](CO)NC(=O)[C@H](C)NC(=O)[C@H](Cc2ccc(O)cc2)NC(=O)[C@H](Cc2c[nH]cn2)NC1=O [GM3γ^210A] ({CH2CO}-[dY]LHYASTYSAYRYAA[dC]-NH2; thioether N-16) | 0.12 µM | 100% | 35.60% and 33.84% | 15.90% and 15.53% | 6.44% and 7.19% | 2.01% | 0.59 h | 33.1% | 17% | 7.23% | 2.04% | 0% | 0.0075 µM | 2.1 10^-3 s^-1 | 280000 M⁻¹ s⁻¹ |  |  |  |  |  | inhibition at 0.309 µM (SARS-CoV-2 M^pro [1]): 77.9%; inhibition at 0.933 µM (SARS-CoV-2 M^pro [1]): 95.6%; inhibition at 8.32 µM (SARS-CoV-2 M^pro [1]): 100%; Remaining peptide (%) ([2]; incubation time 0.5 h, 30 min): 47.41% and 46.64%; remaining at 0.5 h, 10 μM ([2]; incubation time 0.5 h): 44.4%; fold change in binding affinity relative to the original peptide (SARS-CoV-2 M^pro [3]): eightfold stronger |
| CC[C@H](C)[C@@H]1NC(=O)[C@H](Cc2ccc(O)cc2)NC(=O)[C@H](CC(C)C)NC(=O)[C@H](CC(=O)O)NC(=O)[C@H](CCCNC(=N)N)NC(=O)[C@H](Cc2ccccc2)NC(=O)[C@@H]2CC[C@@H](C2)NC(=O)[C@H](Cc2c[nH]cn2)NC(=O)[C@H](Cc2ccccc2)NC(=O)[C@@H](Cc2ccc(O)cc2)NC(=O)CSC[C@H](C(N)=O)NC(=O)CNC(=O)[C@H](CC(C)C)NC1=O [GM5] ({CH2CO}-[dY]FH[X1]FRDLYILG[dC]-NH2; thioether N-13) | 0.04 µM |  | 101.31% and 104.14% |  | 77.04% and 80.18% | 83.97% and 82.30% | 32 h | 101% |  | 78.7% | 83% | 58.4% | 0.0052 µM | 1.2 10^-3 s^-1 | 240000 M⁻¹ s⁻¹ | 66.27% and 59.32% | 29.51% and 26.23% | 20.75% and 19.44% | 30.7% | 19.9% | inhibition at 1.86 µM (SARS-CoV-2 M^pro [1]): 100%; inhibition at 5.62 µM (SARS-CoV-2 M^pro [1]): 100%; inhibition at 16.6 µM (SARS-CoV-2 M^pro [1]): 100%; inhibition at 50.1 µM (SARS-CoV-2 M^pro [1]): 100%; inhibition at […] (SARS-CoV-2 M^pro [1]): 100% |
| CC(C)C[C@@H]1NC(=O)[C@H](C)NC(=O)[C@H](Cc2c[nH]cn2)NC(=O)[C@H](Cc2ccccc2)NC(=O)[C@@H](Cc2ccc(O)cc2)NC(=O)CSC[C@H](C(N)=O)NC(=O)CNC(=O)[C@@H]2CCCN2C(=O)[C@H](CCCNC(=N)N)NC(=O)[C@H](Cc2ccc(O)cc2)NC(=O)CNC(=O)[C@H](CC(C)C)NC(=O)[C@H](CC(N)=O)NC1=O [GM4γ^14A] ({CH2CO}-[dY]FHALNLGYRPG[dC]-NH2; thioether N-13) | 0.01 µM |  | 80.98% and 76.08% | 68.35% and 66.59% | 75.33% and 71.01% | 60.41% and 56.42% | 11 h | 74.2% | 67.6% | 66.7% | 53.6% | 32.3% | 0.0024 µM | 2.6 10^-3 s^-1 | 1.1e+06 M⁻¹ s⁻¹ | 37.15% and 33.37% | 12.36% and 12.37% | 2.74% and 5.40% and 2.53% | 12.3% |  | inhibition at 0.209 µM (SARS-CoV-2 M^pro [1]): 100%; inhibition at 1.86 µM (SARS-CoV-2 M^pro [1]): 100%; inhibition at 5.62 µM (SARS-CoV-2 M^pro [1]): 100%; inhibition at 16.6 µM (SARS-CoV-2 M^pro [1]): 100%; inhibition at 50.1 µM (SARS-CoV-2 M^pro [1]): 100%; inhibition at […] (SARS-CoV-2 M^pro [1]): 100% |
| CC(C)C[C@@H]1NC(=O)[C@H]([C@@H](C)O)NC(=O)[C@H](Cc2ccc(O)cc2)NC(=O)[C@H]([C@@H](C)O)NC(=O)[C@H](Cc2c[nH]cn2)NC(=O)[C@@H]2CCCN2C(=O)[C@@H]2CCCN2C(=O)[C@H](Cc2ccccc2)NC(=O)[C@H]2C[C@H](C2)NC(=O)[C@H](Cc2c[nH]cn2)NC(=O)[C@H](Cc2ccccc2)NC(=O)[C@@H](Cc2ccc(O)cc2)NC(=O)CSC[C@H](C(N)=O)NC1=O [GM1] ({CH2CO}-[dY]FH[Acbc(cis-1,3)]FPPHTYTL[dC]-NH2; thioether N-13) | 0.04 µM | 100% | 111.08% and 111.88% |  | 108.25% and 114.45% | 111.46% and 107.42% | 90 h | 111% |  | 115% | 116% | 77.3% | 0.0023 µM | 0.94 10^-3 s^-1 | 410000 M⁻¹ s⁻¹ | 74.66% and 74.47% | 63.33% and 64.88% | 44.95% and 47.73% | 67.1% | 49% | inhibition at 0.000141 µM (SARS-CoV-2 M^pro [1]): 4.71%; inhibition at 0.0347 µM (SARS-CoV-2 M^pro [1]): 43.7%; inhibition at 0.102 µM (SARS-CoV-2 M^pro [1]): 75.5%; inhibition at 0.309 µM (SARS-CoV-2 M^pro [1]): 93.7%; inhibition at 0.933 µM (SARS-CoV-2 M^pro [1]): 100%; inhibition at 8.32 µM (SARS-CoV-2 M^pro [1]): 100% |
| CC(C)C[C@@H]1NC(=O)[C@H](CC(N)=O)NC(=O)[C@H](CC(C)C)NC(=O)[C@H]2C[C@H](C2)NC(=O)[C@H](CCC(N)=O)NC(=O)[C@H](Cc2ccccc2)NC(=O)[C@@H](Cc2ccc(O)cc2)NC(=O)CSC[C@H](C(N)=O)NC(=O)CNC(=O)[C@@H]2CCCN2C(=O)[C@H](CCCNC(=N)N)NC(=O)[C@H](Cc2ccc(O)cc2)NC(=O)CNC1=O [GM4H3Q] ({CH2CO}-[dY]FQ[Acbc(cis-1,3)]LNLGYRPG[dC]-NH2; thioether N-13) | 0.01 µM |  | 98.03% and 94.19% | 84.19% and 81.93% | 100.31% and 98.70% | 92.68% and 86.88% | 82 h | 93.4% | 87.5% | 99.9% | 93.9% | 81.3% | 0.00086 µM | 1.0 10^-3 s^-1 | 1.2e+06 M⁻¹ s⁻¹ | 77.71% and 81.24% | 64.07% and 63.70% | 43.40% and 43.85% | 70.1% | 44.2% | fold more potent inhibitory activity relative to GM4 (SARS-CoV-2 M^pro [1]): fivefold more potent; inhibition at 0.186 µM (SARS-CoV-2 M^pro [1]): 96%; inhibition at 0.55 µM (SARS-CoV-2 M^pro [1]): 100%; inhibition at 1.66 µM (SARS-CoV-2 M^pro [1]): 100%; inhibition at 5.01 µM (SARS-CoV-2 M^pro [1]): 100%; fold change in binding affinity relative to the original peptide (SARS-CoV-2 M^pro [3]): sixfold stronger |
| CC(C)C[C@@H]1NC(=O)[C@@H](Cc2ccc(O)cc2)NC(=O)CSC[C@H](C(N)=O)NC(=O)[C@H](C)NC(=O)[C@H](C)NC(=O)[C@H](Cc2ccc(O)cc2)NC(=O)[C@H](CCCNC(=N)N)NC(=O)[C@H](Cc2ccc(O)cc2)NC(=O)[C@@H]2CC[C@@H](C2)NC(=O)[C@H](CO)NC(=O)[C@H](Cc2ccc(O)cc2)NC(=O)[C@H]([C@@H](C)O)NC(=O)[C@H](CO)NC(=O)[C@H](C)NC(=O)[C@H](Cc2ccc(O)cc2)NC(=O)[C@H](Cc2c[nH]cn2)NC1=O [GM3] ({CH2CO}-[dY]LHYASTYS[X1]YRYAA[dC]-NH2; thioether N-16) | 2.06 µM | 66.3% | 71.95% and 68.98% | 55.38% and 55.49% | 43.40% and 39.26% | 15.43% and 15.99% | 2.5 h | 60.8% | 48.5% | 45.6% | 15.7% | 0% | 0.062 µM | 13 10^-3 s^-1 | 200000 M⁻¹ s⁻¹ |  |  |  |  |  | Remaining peptide (%) ([2]; incubation time 0.5 h, 30 min): 72.71% and 73.43%; remaining at 0.5 h, 10 μM ([2]; incubation time 0.5 h): 67.7% |
